Measurements from patent publication US20150335025A1 (priority 2014, published 2015).

Test system: Bacillus anthracis Spores
Assay type: cell-based, Bacillus anthracis (Ames strain)

O=S(=O)([O-])OOS(=O)(=O)[O-].[Na+].[Na+] [Klozur ™, sodium persulfate]
Decontamination effectiveness against B. anthracis, topsoil compared with AZTD: not significantly different | Inactivation of B. anthracis: complete inactivation
